Assay results from article PMC11912224, “A general approach for activity-based protein profiling of oxidoreductases with redox-differentiated diarylhalonium warheads” (Chemical Science, 2025).

Columns and labels:
[1] = target: T1, CYP27A1 (sterol-26-hydroxylase) (Mus musculus, UniProt Q9DBG1); assay: covalent labelling, streptavidin enrichment, LC-MS/MS; details: 30 uM probe, 1 h, mouse liver pieces
T1 construct: native, in intact mouse liver pieces
T1 sequence (Q9DBG1 33-533): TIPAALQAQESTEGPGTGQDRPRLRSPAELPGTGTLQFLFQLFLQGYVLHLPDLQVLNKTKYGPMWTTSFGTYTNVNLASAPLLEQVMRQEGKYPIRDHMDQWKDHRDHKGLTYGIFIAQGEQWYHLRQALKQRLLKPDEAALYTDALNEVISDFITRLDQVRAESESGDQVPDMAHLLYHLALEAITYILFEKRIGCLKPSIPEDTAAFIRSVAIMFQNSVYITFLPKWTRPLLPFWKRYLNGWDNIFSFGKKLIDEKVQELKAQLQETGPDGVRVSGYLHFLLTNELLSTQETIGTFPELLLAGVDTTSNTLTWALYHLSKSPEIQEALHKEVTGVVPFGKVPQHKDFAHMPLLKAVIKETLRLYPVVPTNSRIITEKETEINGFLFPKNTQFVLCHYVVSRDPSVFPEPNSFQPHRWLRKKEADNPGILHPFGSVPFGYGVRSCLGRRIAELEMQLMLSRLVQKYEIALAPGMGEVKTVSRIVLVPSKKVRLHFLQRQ

[2] = target: T2, heme oxygenase 2 (HMOX2) (Mus musculus, UniProt O70252); assay: as above; details: 30 uM probe, 1 h, mouse liver pieces
T2 construct: native, in intact mouse liver pieces
T2 sequence (O70252 2-315): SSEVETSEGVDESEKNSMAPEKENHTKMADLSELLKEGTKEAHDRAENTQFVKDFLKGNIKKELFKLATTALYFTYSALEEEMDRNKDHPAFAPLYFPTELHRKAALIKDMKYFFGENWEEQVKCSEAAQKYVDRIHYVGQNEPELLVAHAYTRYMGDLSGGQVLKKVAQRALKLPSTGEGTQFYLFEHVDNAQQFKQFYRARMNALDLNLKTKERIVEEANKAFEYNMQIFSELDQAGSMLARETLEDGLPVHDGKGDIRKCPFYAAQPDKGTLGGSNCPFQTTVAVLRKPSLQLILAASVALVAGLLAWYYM

[3] = target: T3, retinol dehydrogenase RDH16 (Mus musculus, UniProt O54909); assay: as above; details: 30 uM probe, 1 h, mouse liver pieces
T3 construct: native, in intact mouse liver pieces
T3 sequence (O54909 1-317): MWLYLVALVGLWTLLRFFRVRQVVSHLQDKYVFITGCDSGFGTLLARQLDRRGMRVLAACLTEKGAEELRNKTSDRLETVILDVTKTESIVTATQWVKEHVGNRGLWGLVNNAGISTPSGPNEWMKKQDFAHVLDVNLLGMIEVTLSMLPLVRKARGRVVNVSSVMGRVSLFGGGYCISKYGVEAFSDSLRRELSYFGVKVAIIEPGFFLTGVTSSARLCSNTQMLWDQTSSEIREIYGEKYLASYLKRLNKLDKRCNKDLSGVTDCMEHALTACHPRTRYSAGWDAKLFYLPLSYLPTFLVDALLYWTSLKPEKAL

[4] = target: T4, ALDH2 (aldehyde dehydrogenase 2, recombinant human) (Homo sapiens, UniProt P05091); assay: activity-based labelling, in-gel fluorescence; format: binding; details: covalent; 30 uM probe, 1 h
T4 construct: recombinant
T4 sequence (P05091 18-517): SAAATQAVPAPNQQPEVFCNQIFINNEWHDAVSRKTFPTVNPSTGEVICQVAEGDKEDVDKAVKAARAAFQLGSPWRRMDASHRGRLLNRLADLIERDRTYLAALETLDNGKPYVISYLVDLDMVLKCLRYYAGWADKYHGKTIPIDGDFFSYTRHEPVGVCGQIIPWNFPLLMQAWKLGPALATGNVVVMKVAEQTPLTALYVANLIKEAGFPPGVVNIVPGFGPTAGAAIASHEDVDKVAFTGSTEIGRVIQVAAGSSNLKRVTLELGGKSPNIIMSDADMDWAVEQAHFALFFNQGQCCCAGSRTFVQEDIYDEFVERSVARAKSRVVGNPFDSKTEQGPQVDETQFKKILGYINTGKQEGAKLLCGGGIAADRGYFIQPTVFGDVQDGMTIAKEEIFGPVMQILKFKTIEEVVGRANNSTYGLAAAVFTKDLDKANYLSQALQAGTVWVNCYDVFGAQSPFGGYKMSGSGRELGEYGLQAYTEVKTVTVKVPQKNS

[5] = target: T5, CHO (choline oxidase) (Glutamicibacter nicotianae, UniProt A0ABQ0RMK5); assay: activity-based labelling, in-gel fluorescence; format: binding; details: covalent; 30 uM probe, 1 h
T5 construct: gene ANI01nite_22550; recombinant; FAD enzyme; details not in main text
T5 sequence (A0ABQ0RMK5 1-523): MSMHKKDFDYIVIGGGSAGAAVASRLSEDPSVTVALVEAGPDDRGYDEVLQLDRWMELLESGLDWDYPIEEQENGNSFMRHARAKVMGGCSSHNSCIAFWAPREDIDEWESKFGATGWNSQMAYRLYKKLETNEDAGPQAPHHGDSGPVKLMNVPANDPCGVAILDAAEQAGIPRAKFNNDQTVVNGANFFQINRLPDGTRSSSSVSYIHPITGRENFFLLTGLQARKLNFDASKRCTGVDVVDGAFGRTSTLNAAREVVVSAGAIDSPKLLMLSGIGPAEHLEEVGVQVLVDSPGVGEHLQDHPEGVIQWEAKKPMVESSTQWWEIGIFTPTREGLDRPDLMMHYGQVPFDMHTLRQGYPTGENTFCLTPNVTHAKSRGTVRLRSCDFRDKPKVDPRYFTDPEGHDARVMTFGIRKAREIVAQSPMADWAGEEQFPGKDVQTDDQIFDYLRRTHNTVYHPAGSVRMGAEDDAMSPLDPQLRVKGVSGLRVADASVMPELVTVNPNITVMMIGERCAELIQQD

[6] = target: T6, CYP3A25 (Mus musculus, UniProt O09158); assay: covalent labelling, streptavidin enrichment, LC-MS/MS; details: 30 uM probe, 1 h, mouse liver pieces
T6 construct: native, in intact mouse liver pieces
T6 sequence (O09158 1-503): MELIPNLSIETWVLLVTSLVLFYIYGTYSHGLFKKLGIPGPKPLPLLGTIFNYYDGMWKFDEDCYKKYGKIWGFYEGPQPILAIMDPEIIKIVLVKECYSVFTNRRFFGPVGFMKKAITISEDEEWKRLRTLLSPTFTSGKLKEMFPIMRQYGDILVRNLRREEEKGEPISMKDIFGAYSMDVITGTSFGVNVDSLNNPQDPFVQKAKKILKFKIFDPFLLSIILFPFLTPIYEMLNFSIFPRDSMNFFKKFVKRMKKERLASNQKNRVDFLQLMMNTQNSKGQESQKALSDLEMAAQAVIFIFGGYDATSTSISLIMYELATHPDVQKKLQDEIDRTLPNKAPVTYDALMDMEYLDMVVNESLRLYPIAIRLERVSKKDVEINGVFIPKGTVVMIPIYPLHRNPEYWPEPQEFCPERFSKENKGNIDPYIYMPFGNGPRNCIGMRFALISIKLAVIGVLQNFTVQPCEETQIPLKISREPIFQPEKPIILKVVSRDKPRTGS

[N-]=[N+]=NCCCCCCCCCCNC(=O)c1ccc([I+]c2ccccc2)cc1 [3aa, diphenyliodonium probe 3aa]
covalent labelling, streptavidin enrichment, LC-MS/MS [1]: cytochrome P450 monooxygenases (CYP3A25, CYP27A1) | covalent labelling, streptavidin enrichment, LC-MS/MS [2]: HMOX2 was significantly enriched by diaryliodonium probes 3aa, 3ca, and 3da | covalent labelling, streptavidin enrichment, LC-MS/MS [3]: RDH7 and RDH16 were found to be labeled by probe 3aa very well | activity-based labelling, in-gel fluorescence [4]: led to the labeling of several of the tested oxidoreductases | activity-based labelling, in-gel fluorescence [5]: led to the labeling of several of the tested oxidoreductases | covalent labelling, streptavidin enrichment, LC-MS/MS [6]: cytochrome P450 monooxygenases (CYP3A25, CYP27A1)
